These results are taken from patent publication EP0863880B1, “NOVEL 1-AR(ALK)YL-IMIDAZOLIN-2-ONES CONTAINING A DISUBSTITUTED AMINE RADICAL IN THE 4TH POSITION, HAVING AN ANTI-CONVULSIVE EFFECT, AND PROCESS FOR THEIR PRODUCTION” (elbion AG, priority 1995, dated 1997).

For one data set, the system named is maximaler Elektroschock. The experiment in a line: maximal electroshock (MES) test, mouse i.p. The note with it: Maus i.p. In kind it is in vivo. On the technique in general: The maximal electroshock test induces tonic seizures with an electrical stimulus.
The test system of the next data set is s.c. Pentetrazol. In words: s.c. pentetrazole (PTZ) test, mouse i.p. The note with it: Maus i.p. In kind it is in vivo.
A short description of data set [1]: octanol/water partition coefficient. Format: physicochemical. The note with it: Octanol/Wasser, read-out: log P (Verteilungskoeffizient Octanol/Wasser).
For a further data set, the system named is Neurotoxizität. The note with it: Ratte, p.o.
Another data set deals with s.c. Pentetrazol-Test. The experiment in a line: s.c. pentetrazole test, rat.
The next data set concerns maximalen Elektroschock. The experiment in a line: maximal electroshock test, rat p.o. To be noted: po, read-out: ED50 (p.o.).

For the molecule `CCCC(CCC)C(=O)O` [Valproat, reference compound], the “Wirkung in % der geschützten Tiere” value in the data set on maximaler Elektroschock (Dosis 100 mg/kg) turned out to be 0%; in the data set on s.c. Pentetrazol (Dosis 100 mg/kg), 30%.

In the case of `O=C1N=C(N2CCCCC2)CN1c1ccc(Cl)cc1` [Verbindung 3], the “Wirkung in % der geschützten Tiere” value in the data set on maximaler Elektroschock (Dosis 100 mg/kg) and in the data set with s.c. Pentetrazol (Dosis 100 mg/kg) was 100% throughout. Further, in data set [1], the logP was determined as 2.29.

For `O=C1N=C(N2CCOCC2)CN1c1cccc(Cl)c1` [Verbindung 10], the “Wirkung in % der geschützten Tiere” value in the data set with maximaler Elektroschock (Dosis 300 mg/kg) stood at 10%; in the data set on s.c. Pentetrazol (Dosis 300 mg/kg), 70%. The logP in data set [1] is 1.28.

Take `O=C1N=C(N2CCCCCC2)CN1c1ccc(Cl)cc1` [Verbindung 11]: the “Wirkung in % der geschützten Tiere” value with maximaler Elektroschock (Dosis 300 mg/kg) stood at 100%; with s.c. Pentetrazol (Dosis 300 mg/kg), 40%. The logP in data set [1] turned out to be 2.56.

With `O=C1N=C(N2CCOCC2)CN1c1ccccc1` [Verbindung 1], the “Wirkung in % der geschützten Tiere” value with maximaler Elektroschock (Dosis 100 mg/kg) and in the data set with s.c. Pentetrazol (Dosis 100 mg/kg) was 30% in each case. In addition, the logP in data set [1] worked out at 0.64.

Consider `NC(=O)N1c2ccccc2C=Cc2ccccc21` [Carbamazepin, reference compound], for which the “Wirkung in % der geschützten Tiere” value with maximaler Elektroschock (Dosis 100 mg/kg) was found to be 100%; in the data set with s.c. Pentetrazol (Dosis 100 mg/kg), 0%.

Regarding `O=C1N=C(N2CCOCC2)CN1c1ccc(Br)cc1` [Verbindung 8], the results for the “Wirkung in % der geschützten Tiere” value in the data set with maximaler Elektroschock (Dosis 300 mg/kg) and with s.c. Pentetrazol (Dosis 100 mg/kg) were 30% and 100%, respectively. Further, in data set [1], the logP was 1.45.

For the molecule `COc1ccc(N2CC(N3CCCCC3)=NC2=O)cc1` [Verbindung 7], the “Wirkung in % der geschützten Tiere” value with maximaler Elektroschock (Dosis 300 mg/kg) and in the data set with s.c. Pentetrazol (Dosis 100 mg/kg) was 100% throughout. Besides, the logP in data set [1] was found to be 1.53.

For `O=C1N=C(N2CCOCC2)CN1c1ccc(F)cc1` [Verbindung 9], the “Wirkung in % der geschützten Tiere” value is 30% in the data set with maximaler Elektroschock (Dosis 100 mg/kg) and 100% with s.c. Pentetrazol (Dosis 100 mg/kg). For the same molecule, in data set [1], the logP is 0.97.

As to `O=C1N=C(N2CCOCC2)CN1c1ccc(Cl)cc1` [Verbindung 2, 1-(4-Chlorphenyl)-4-morpholinoimidazolin-2-on], the “Wirkung in % der geschützten Tiere” value in the data set with maximaler Elektroschock (Dosis 300 mg/kg) was determined as 30%; in the data set on s.c. Pentetrazol (Dosis 30 mg/kg), 70%. Also, the logP in data set [1] is 1.48. In the data set with Neurotoxizität, the NT50 is over 400 mg/kg. For the same molecule, the ED50 (commonly the dose at which the effect has come halfway, by size or by number of responders) with s.c. Pentetrazol-Test came to 16 mg/kg; in the data set on maximalen Elektroschock it was 21 mg/kg.

With `CN1CCN(C2=NC(=O)N(c3ccc(Cl)cc3)C2)CC1` [Verbindung 5], the “Wirkung in % der geschützten Tiere” value in the data set on maximaler Elektroschock (Dosis 300 mg/kg) and with s.c. Pentetrazol (Dosis 300 mg/kg) was 100% each time. Moreover, the logP in data set [1] stood at 2.17.

Turning to `O=C1N=C(N2CCOCC2)CN1Cc1ccccc1` [Verbindung 4], the “Wirkung in % der geschützten Tiere” value with maximaler Elektroschock (Dosis 300 mg/kg) and with s.c. Pentetrazol (Dosis 300 mg/kg) was 30% throughout. In addition, in data set [1], the logP was determined as 0.48.

In the case of `CN(C)C1=NC(=O)N(c2ccc(Cl)cc2)C1` [Verbindung 6], the entries for the “Wirkung in % der geschützten Tiere” value in the data set with maximaler Elektroschock (Dosis 300 mg/kg) and with s.c. Pentetrazol (Dosis 100 mg/kg) were 100% and 20%, respectively. In addition, the logP in data set [1] stood at 1.61.
